According to patent US9932335B2 (priority 2013, dated 2018):
Where a chain is given by its changes, count along the chain named. pEC50: −log10 of the molar value. Where two headings read alike, the source gives them in different places.

Tests used:
M1 receptor = target: T1, M1 receptor (Rattus norvegicus, UniProt P08482); test: M1 PAM assay (FLIPR intracellular calcium), rat; type: cell-based
T1 construct: expressed in transfected cells
T1 sequence (P08482 1-460): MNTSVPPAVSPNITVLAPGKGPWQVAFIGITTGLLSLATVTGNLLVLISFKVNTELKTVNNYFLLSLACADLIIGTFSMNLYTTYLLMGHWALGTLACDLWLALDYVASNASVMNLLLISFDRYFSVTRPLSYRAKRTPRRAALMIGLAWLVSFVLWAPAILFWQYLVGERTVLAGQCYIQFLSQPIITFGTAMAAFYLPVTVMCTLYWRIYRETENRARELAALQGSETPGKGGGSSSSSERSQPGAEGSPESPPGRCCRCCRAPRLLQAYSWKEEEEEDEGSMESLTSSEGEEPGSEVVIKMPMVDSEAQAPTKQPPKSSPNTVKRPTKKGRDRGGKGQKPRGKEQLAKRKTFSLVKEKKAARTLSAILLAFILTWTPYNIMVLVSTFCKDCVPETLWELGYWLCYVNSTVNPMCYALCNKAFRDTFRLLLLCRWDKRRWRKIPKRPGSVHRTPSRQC

human M1 = target: T2, human M1 (Homo sapiens, UniProt P11229); test: M1 PAM assay (FLIPR intracellular calcium, CHO human M1); type: cell-based
T2 construct: expressed in transfected cells; host or cells: CHO cells
T2 sequence (P11229 1-460): T1 sequence (P08482 1-460) with V5A, S254T, S309P, K320R, G337A, V413I
Procedure: The assay study the effect of several concentrations of test compounds on basal or acetylcholine-stimulated Ca^2+ levels using FLIPR. CHO human M1 are plated the day before the experiments at 2×10^5 cells/ml in PDL BioCoat 96 well black/clear plate (Becton 35 4640). The cells are grown at 37° C. and 5% CO2 in the following medium: F12 Nut Mix (Gibco 21765), 10% FCS heat inactivated (GIBCO 16000-044), 1% Pen Strep (Gibco, 15140) and 200 μg/ml Geneticin (Gibco 11811). On the day of the experiment, the medium was removed and replaced by 100 μl of dye loading buffer containing Hanks Balanced Salt solution (HBSS, 14065-049, Gibco) with 20 mM HEPES (Gibco 15630-056), 2 mM Probenicid (Sigma P8761), […] (Molecular Probes F-14202), 10% Pluronic acid Molecular Probes P-3000) pH=7.4 and incubated at 37° C. After 60 minutes extracellular dye was removed and the cells were washed five times with FLIPR buffer containing HBSS (Gibco 14065-049) with 20 mM HEPES (Gibco, 15630-056), 2 mM Probenicid (Sigma P8761) pre-warmed at 37° C. using and Ebml cell washer leaving 100 μl of FLIPR buffer in each well. The cell plate and the diluted compounds (1% DMSO final concentration) are placed on the platform of the FLIPR and the door closed. A signal test to check background fluorescence and basal fluorescence signal is performed. Laser intensity is adjusted if necessary. Two minutes preincubation with the diluted test compounds is provide to determine any agonist activity on the M1 receptor by comparison to 30 nM Acetylcholine control. In order to determine any modulator activity the diluted compounds were added to cells and after two minutes preincubation, the EC20 of acetylcholine is added followed by another two minutes preincubation before the measurement of intracellular Ca^2+ with a FLIPR (Molecular Devices).

[1] = human M1 in CHO cells, modulator activity with EC20 of acetylcholine, FLIPR Ca2+, read-out: EC50 h PAM

| Compound | pEC50 (M1 receptor) | pEC50 (human M1) | pEC50 (human M1; [1]) |
| --- | --- | --- | --- |
| Cn1cc(-c2ccc(Cn3cc(C(=O)N[C@H]4CCOC[C@@H]4O)c4ncccc43)c(F)c2)cn1 (racemic) [Example 4, 1-(2-fluoro-4-(1-methyl-1H-pyrazol-4-yl)benzyl)-N-((3RS,4SR)-3-hydroxytetrahydro-2H-pyran-4-yl)-1H-pyrrolo[3,2-b]pyridine-3-carboxamide] | 7.23 | 7.54 | – |
| COCC(O)CNC(=O)c1cn(Cc2ccc(-c3cnn(C)c3)cc2F)c2cccnc12 (racemic) [Example 7, rac-1-[2-Fluoro-4-(1-methyl-1H-pyrazol-4-yl)-benzyl]-1H-pyrrolo[3,2-b]pyridine-3-carboxylic acid (2-hydroxy-3-methoxy-propyl)-amide] | – | – | 6.63 |
| Cn1cc(-c2ccc(Cn3cc(C(=O)N[C@H]4CCCC[C@H]4O)c4ncccc43)c(F)c2)cn1 (racemic) [Example 37] | 6.91 | 6.79 | – |
| Cn1cc(-c2ccc(Cn3cc(C(=O)N[C@H]4CCCC[C@]4(C)O)c4ncccc43)c(F)c2)cn1 (racemic) [Example 39, 1-(2-fluoro-4-(1-methyl-1H-pyrazol-4-yl)benzyl)-N-((1SR,2SR)-2-hydroxy-2-methylcyclohexyl)-1H-pyrrolo[3,2-b]pyridine-3-carboxamide] | 6.58 | 6.75 | – |
| Cn1cc(-c2ccc(Cn3cc(C(=O)N[C@H]4CCCC[C@@]4(C)O)c4ncccc43)c(F)c2)cn1 (racemic) [Example 40, 1-(2-fluoro-4-(1-methyl-1H-pyrazol-4-yl)benzyl)-N-((1SR,2RS)-2-hydroxy-2-methylcyclohexyl)-1H-pyrrolo[3,2-b]pyridine-3-carboxamide] | 7.20 | 7.32 | – |
| Cn1cc(-c2ccc(Cn3cc(C(=O)N[C@H]4CCOC[C@@H]4O)c4ncccc43)cn2)cn1 (racemic) [Example 57, N-((3RS,4SR)-3-hydroxytetrahydro-2H-pyran-4-yl)-1-((6-(1-methyl-1H-pyrazol-4-yl)pyridin-3-yl)methyl)-1H-pyrrolo[3,2-b]pyridine-3-carboxamide] | 6.88 | 6.84 | – |
| C[C@@H](O)CNC(=O)c1cn(Cc2ccc(-c3cnn(C)c3)cc2F)c2cccnc12 [Example 9] | – | – | 6.34 |
| C[C@H](O)CNC(=O)c1cn(Cc2ccc(-c3cnn(C)c3)cc2F)c2cccnc12 [Example 10] | – | – | 6.32 |
| Cn1cc(-c2ccc(Cn3cc(C(=O)NC[C@@H](O)CO)c4ncccc43)c(F)c2)cn1 [Example 15, 1-[2-Fluoro-4-(1-methyl-1H-pyrazol-4-yl)-benzyl]-1H-pyrrolo[3,2-b]pyridine-3-carboxylic acid ((R)-2,3-dihydroxy-propyl)-amide] | – | – | 6.48 |
| Cn1cc(-c2ccc(Cn3cc(C(=O)N[C@@H]4CCC[C@H]4O)c4ncccc43)c(F)c2)cn1 [Example 16, 1-[2-Fluoro-4-(1-methyl-1H-pyrazol-4-yl)-benzyl]-1H-pyrrolo[3,2-b]pyridine-3-carboxylic acid ((1R,2R)-2-hydroxy-cyclopentyl)-amide] | – | 6.40 | – |
| CC(C)[C@H](CO)NC(=O)c1cn(Cc2ccc(-c3cnn(C)c3)cc2F)c2cccnc12 [Example 21, 1-[2-Fluoro-4-(1-methyl-1H-pyrazol-4-yl)-benzyl]-1H-pyrrolo[3,2-b]pyridine-3-carboxylic acid ((R)-1-hydroxymethyl-2-methyl-propyl)-amide] | – | 6.70 | – |
| CCC[C@@H](CO)NC(=O)c1cn(Cc2ccc(-c3cnn(C)c3)cc2F)c2cccnc12 [Example 23, 1-[2-Fluoro-4-(1-methyl-1H-pyrazol-4-yl)-benzyl]-1H-pyrrolo[3,2-b]pyridine-3-carboxylic acid ((S)-1-hydroxymethyl-butyl)-amide] | – | 6.69 | – |
| CC(C)C[C@@H](CO)NC(=O)c1cn(Cc2ccc(-c3cnn(C)c3)cc2F)c2cccnc12 [Example 25, 1-[2-Fluoro-4-(1-methyl-1H-pyrazol-4-yl)-benzyl]-1H-pyrrolo[3,2-b]pyridine-3-carboxylic acid ((S)-1-hydroxymethyl-3-methyl-butyl)-amide] | – | – | 6.63 |
| Cn1cc(-c2ccc(Cn3cc(C(=O)Nc4ccccc4CO)c4ncccc43)c(F)c2)cn1 [Example 29, 1-[2-Fluoro-4-(1-methyl-1H-pyrazol-4-yl)-benzyl]-1H-pyrrolo[3,2-b]pyridine-3-carboxylic acid (2-hydroxymethyl-phenyl)-amide] | – | – | 6.53 |
| Cn1cc(-c2ccc(Cn3cc(C(=O)NCC(O)c4ccccc4)c4ncccc43)c(F)c2)cn1 (stereo not shown) [Example 31, 1-[2-Fluoro-4-(1-methyl-1H-pyrazol-4-yl)-benzyl]-1H-pyrrolo[3,2-b]pyridine-3-carboxylic acid (2-hydroxy-2-phenyl-ethyl)-amide] | – | – | 6.37 |
| Cc1ccc(NC(=O)c2cn(Cc3ccc(-c4cnn(C)c4)cc3F)c3cccnc23)c(CO)c1 [Example 33, 1-[2-Fluoro-4-(1-methyl-1H-pyrazol-4-yl)-benzyl]-1H-pyrrolo[3,2-b]pyridine-3-carboxylic acid (2-hydroxymethyl-4-methyl-phenyl)-amide] | – | – | 6.55 |
| Cc1cccnc1NC(=O)c1cn(Cc2ccc(-c3cnn(C)c3)cc2F)c2cccnc12 [Example 35, 1-[2-Fluoro-4-(1-methyl-1H-pyrazol-4-yl)-benzyl]-1H-pyrrolo[3,2-b]pyridine-3-carboxylic acid (3-methyl-pyridin-2-yl)-amide] | – | – | 6.49 |
| CO[C@H]1CCCC[C@@H]1NC(=O)c1cn(Cc2ccc(-c3cnn(C)c3)cc2F)c2cccnc12 [Example 38, 1-[2-Fluoro-4-(1-methyl-1H-pyrazol-4-yl)-benzyl]-1H-pyrrolo[3,2-b]pyridine-3-carboxylic acid ((1S,2S)-2-methoxy-cyclohexyl)-amide] | – | – | 6.43 |
| Cn1cc(-c2ccc(Cn3cc(C(=O)N[C@@H]4COCC[C@H]4O)c4ncccc43)c(F)c2)cn1 [Example 42, 1-(2-fluoro-4-(1-methyl-1H-pyrazol-4-yl)benzyl)-N-((3R,4R)-4-hydroxytetrahydro-2H-pyran-3-yl)-1H-pyrrolo[3,2-b]pyridine-3-carboxamide] | – | 6.31 | – |
| O=C(N[C@H]1CCCC[C@@H]1O)c1cn(Cc2ccc(Br)cc2)c2cccnc12 [Example 50, 1-(4-bromobenzyl)-N-((1S,2S)-2-hydroxycyclohexyl)-1H-pyrrolo[3,2-b]pyridine-3-carboxamide] | – | – | 6.50 |
| Cn1cc(-c2cccc(Cn3cc(C(=O)N[C@H]4CCCC[C@@H]4O)c4ncccc43)c2)cn1 [Example 51, N-((1S,2S)-2-hydroxycyclohexyl)-1-(3-(1-methyl-1H-pyrazol-4-yl)benzyl)-1H-pyrrolo[3,2-b]pyridine-3-carboxamide] | – | 6.35 | – |
| N#Cc1ccc(Cn2cc(C(=O)N[C@H]3CCCC[C@@H]3O)c3ncccc32)c(F)c1 [Example 53, 1-(4-cyano-2-fluorobenzyl)-N-((1S,2S)-2-hydroxycyclohexyl)-1H-pyrrolo[3,2-b]pyridine-3-carboxamide] | – | 6.49 | – |
| O=C(N[C@H]1CCCC[C@@H]1O)c1cn(Cc2ccc(Cl)cc2)c2cccnc12 [Example 54, 1-(4-chlorobenzyl)-N-((1S,2S)-2-hydroxycyclohexyl)-1H-pyrrolo[3,2-b]pyridine-3-carboxamide] | – | 6.58 | – |
